# Columns and labels:
# [1] = test system: NCI-H716 and NCI-2228; test: Interferon gamma ELISA in co-culture with human CD8+ T-cells and TP53-CD3 bispecific antibody; assay type: cell-based
# [2] = test system: RENCA (renal); test: Syngeneic RENCA tumor mouse model; assay type: in vivo, mice
# Experimental: Confident NMD inhibition with the compound of Formula I was leading to in-vivo changes to the tumor and its immune environment and it was evaluated whether these alterations could be taken advantage of in an immune competent system. Murine RENCA (renal) and LLC (Lewis Lung Cancer) cell lines were chosen as they harbor a large number of out of frame indel mutations based on whole exome DNA sequencing (WES) (Table SX-RENCA and LLC mutations). It was confirmed that treatment of these cell lines could stop NMD mediated repression of mutant RNA, and induced expression of exogenous genes controlled by NMD by real time PCR. Cells were placed in the mammary fat pad of C57BL/6N (LLC also known as LL2) and BALB/c (RENCA) mice, randomly sorted animals after tumors became palpable ensuring to balance the tumor size of each group, and then treated with vehicle or the compound of Formula I (FIG. 6A).
# [3] = test system: NMD targeted mutant protein (EXOC1, SPTAN1); test: Western blot of mutant proteins in NCI-H358 and LS180 cells; assay type: cell-based; details: NCI-H358 and LS180
# Description: (§1) It was next sought to evaluate whether LY3023414 could relieve repression of indel containing transcripts in cancer cells. The microsatellite stable NCI-H358 and microsatellite instable LS180 lung and colorectal cancer cell lines were chosen respectively. Nearly 40% of heterozygous indel and 25% of nonsense single base-pair mutation containing genes show increased expression of their mutant allele when treated with LY3023414 when evaluated by RNA sequencing (FIG. 2A). […] Heterozygous single nucleotide polymorphism (SNP) Ring Finger Protein 43 (RNF43) and drosha ribonuclease […] (DROSHA) served as controls, and allele ratios remain unchanged with treatment (FIG. 2B). To investigate for changes at the protein level, NCI-H358 cells were treated for 24 hours with either LY3023414 or DMSO.
# (§2) Analyzing a wider set of 21 NMD sensitive genes from the RNA-Seq analysis in LS180 confirmed that LY3023414 and SMG1 specific inhibitor increase the same 18 genes with a greater than 80% re-expression rate, in both cell lines. […] As SMG1 inhibition is an off target effect for LY3023414, the concentrations used in this study may result in inhibition of a number of different kinases.
# (§3) To confirm disruption of downstream signaling of SMG1, a western blot was performed with phosphorylation specific antibodies for UPF1.
# [4] = test system: phosphorylated UPF1; test: Phospho-UPF1 specific western blot; assay type: cell-based; details: three different cell lines
# Experimental: as §2, §3
# [5] = test system: nonsense mediated decay (NMD); test: NCI-H358 and LS180 xenograft tumors in NOD-SCID mice, mutant RNA transcripts and tolerability; assay type: in vivo
# [6] = test system: melanoma line B16-F10; test: Syngeneic B16-F10 melanoma model; assay type: in vivo
# [7] = test system: NCI-H358 and LS180 cells; test: MHC class I HLA presentation of mutant specific peptides by quantitative HPLC-Mass Spectrometry; assay type: cell-based; details: 24 hours in-vitro, pan-HLA immunoprecipitation
# Experimental: Downregulating mutated genes with frame shifts via NMD is one mechanism employed by cancer cells to avoid immune surveillance. To confirm the small molecule could alter the immune landscape of a tumor, cell surface presentation of known mutant proteins was assessed in NCI-H358 and LS180 cells. Cells were treated in-vitro for 24 hours with DMSO or the compound of Formula I in duplicate, cross linked and immunoprecipitated with pan-HLA antibodies to obtain cell surface MHC presented peptides. 187 mutation specific peptides were initially identified that could be potentially presented by using the union of NetMHC and Predictor of Immunogenic Epitopes (PRIME) predictions. These predictions were tested by performing HPLC Mass Spectromety (MS) on cells that were treated in-vitro for 24 hours with DMSO or the compound of Formula I, cross linked and immunoprecipitated with pan-HLA antibodies to obtain cell surface MHC presented peptides. Based on those results, heavy isotope labeled peptides were designed for 14 peptides from NCI-H358, and 24 peptides from LS180 cells with high confidence of MS detection. These heavy labeled peptides were then used as internal standard to perform quantitative HPLC-Mass Spectrometry. […] This is consistent with re-expression of mutant protein shown previously by western blot (FIGS. 3C and 4D). […]
# [8] = test system: LLC (Lewis Lung Cancer); test: Syngeneic LLC tumor mouse model; assay type: in vivo, mice
# Description: Murine RENCA (renal) and LLC (Lewis Lung Cancer) cell lines were chosen as they harbor a large number of out of frame indel mutations based on whole exome DNA sequencing (WES) (Table SX-RENCA and LLC mutations). It was confirmed that treatment of these cell lines could stop NMD mediated repression of mutant RNA, and induced expression of exogenous genes controlled by NMD by real time PCR. […]
# [9] = Physical properties related to solubility; assay type: physicochemical; details: compared with previously made SMG1 specific inhibitors
# [10] = molecular target: SMG1 protein (Homo sapiens, UniProt Q96Q15); test: Kinativ assay; assay type: binding; details: 100 nM run in duplicate
# Sequence of SMG1 protein (Q96Q15 whole entry): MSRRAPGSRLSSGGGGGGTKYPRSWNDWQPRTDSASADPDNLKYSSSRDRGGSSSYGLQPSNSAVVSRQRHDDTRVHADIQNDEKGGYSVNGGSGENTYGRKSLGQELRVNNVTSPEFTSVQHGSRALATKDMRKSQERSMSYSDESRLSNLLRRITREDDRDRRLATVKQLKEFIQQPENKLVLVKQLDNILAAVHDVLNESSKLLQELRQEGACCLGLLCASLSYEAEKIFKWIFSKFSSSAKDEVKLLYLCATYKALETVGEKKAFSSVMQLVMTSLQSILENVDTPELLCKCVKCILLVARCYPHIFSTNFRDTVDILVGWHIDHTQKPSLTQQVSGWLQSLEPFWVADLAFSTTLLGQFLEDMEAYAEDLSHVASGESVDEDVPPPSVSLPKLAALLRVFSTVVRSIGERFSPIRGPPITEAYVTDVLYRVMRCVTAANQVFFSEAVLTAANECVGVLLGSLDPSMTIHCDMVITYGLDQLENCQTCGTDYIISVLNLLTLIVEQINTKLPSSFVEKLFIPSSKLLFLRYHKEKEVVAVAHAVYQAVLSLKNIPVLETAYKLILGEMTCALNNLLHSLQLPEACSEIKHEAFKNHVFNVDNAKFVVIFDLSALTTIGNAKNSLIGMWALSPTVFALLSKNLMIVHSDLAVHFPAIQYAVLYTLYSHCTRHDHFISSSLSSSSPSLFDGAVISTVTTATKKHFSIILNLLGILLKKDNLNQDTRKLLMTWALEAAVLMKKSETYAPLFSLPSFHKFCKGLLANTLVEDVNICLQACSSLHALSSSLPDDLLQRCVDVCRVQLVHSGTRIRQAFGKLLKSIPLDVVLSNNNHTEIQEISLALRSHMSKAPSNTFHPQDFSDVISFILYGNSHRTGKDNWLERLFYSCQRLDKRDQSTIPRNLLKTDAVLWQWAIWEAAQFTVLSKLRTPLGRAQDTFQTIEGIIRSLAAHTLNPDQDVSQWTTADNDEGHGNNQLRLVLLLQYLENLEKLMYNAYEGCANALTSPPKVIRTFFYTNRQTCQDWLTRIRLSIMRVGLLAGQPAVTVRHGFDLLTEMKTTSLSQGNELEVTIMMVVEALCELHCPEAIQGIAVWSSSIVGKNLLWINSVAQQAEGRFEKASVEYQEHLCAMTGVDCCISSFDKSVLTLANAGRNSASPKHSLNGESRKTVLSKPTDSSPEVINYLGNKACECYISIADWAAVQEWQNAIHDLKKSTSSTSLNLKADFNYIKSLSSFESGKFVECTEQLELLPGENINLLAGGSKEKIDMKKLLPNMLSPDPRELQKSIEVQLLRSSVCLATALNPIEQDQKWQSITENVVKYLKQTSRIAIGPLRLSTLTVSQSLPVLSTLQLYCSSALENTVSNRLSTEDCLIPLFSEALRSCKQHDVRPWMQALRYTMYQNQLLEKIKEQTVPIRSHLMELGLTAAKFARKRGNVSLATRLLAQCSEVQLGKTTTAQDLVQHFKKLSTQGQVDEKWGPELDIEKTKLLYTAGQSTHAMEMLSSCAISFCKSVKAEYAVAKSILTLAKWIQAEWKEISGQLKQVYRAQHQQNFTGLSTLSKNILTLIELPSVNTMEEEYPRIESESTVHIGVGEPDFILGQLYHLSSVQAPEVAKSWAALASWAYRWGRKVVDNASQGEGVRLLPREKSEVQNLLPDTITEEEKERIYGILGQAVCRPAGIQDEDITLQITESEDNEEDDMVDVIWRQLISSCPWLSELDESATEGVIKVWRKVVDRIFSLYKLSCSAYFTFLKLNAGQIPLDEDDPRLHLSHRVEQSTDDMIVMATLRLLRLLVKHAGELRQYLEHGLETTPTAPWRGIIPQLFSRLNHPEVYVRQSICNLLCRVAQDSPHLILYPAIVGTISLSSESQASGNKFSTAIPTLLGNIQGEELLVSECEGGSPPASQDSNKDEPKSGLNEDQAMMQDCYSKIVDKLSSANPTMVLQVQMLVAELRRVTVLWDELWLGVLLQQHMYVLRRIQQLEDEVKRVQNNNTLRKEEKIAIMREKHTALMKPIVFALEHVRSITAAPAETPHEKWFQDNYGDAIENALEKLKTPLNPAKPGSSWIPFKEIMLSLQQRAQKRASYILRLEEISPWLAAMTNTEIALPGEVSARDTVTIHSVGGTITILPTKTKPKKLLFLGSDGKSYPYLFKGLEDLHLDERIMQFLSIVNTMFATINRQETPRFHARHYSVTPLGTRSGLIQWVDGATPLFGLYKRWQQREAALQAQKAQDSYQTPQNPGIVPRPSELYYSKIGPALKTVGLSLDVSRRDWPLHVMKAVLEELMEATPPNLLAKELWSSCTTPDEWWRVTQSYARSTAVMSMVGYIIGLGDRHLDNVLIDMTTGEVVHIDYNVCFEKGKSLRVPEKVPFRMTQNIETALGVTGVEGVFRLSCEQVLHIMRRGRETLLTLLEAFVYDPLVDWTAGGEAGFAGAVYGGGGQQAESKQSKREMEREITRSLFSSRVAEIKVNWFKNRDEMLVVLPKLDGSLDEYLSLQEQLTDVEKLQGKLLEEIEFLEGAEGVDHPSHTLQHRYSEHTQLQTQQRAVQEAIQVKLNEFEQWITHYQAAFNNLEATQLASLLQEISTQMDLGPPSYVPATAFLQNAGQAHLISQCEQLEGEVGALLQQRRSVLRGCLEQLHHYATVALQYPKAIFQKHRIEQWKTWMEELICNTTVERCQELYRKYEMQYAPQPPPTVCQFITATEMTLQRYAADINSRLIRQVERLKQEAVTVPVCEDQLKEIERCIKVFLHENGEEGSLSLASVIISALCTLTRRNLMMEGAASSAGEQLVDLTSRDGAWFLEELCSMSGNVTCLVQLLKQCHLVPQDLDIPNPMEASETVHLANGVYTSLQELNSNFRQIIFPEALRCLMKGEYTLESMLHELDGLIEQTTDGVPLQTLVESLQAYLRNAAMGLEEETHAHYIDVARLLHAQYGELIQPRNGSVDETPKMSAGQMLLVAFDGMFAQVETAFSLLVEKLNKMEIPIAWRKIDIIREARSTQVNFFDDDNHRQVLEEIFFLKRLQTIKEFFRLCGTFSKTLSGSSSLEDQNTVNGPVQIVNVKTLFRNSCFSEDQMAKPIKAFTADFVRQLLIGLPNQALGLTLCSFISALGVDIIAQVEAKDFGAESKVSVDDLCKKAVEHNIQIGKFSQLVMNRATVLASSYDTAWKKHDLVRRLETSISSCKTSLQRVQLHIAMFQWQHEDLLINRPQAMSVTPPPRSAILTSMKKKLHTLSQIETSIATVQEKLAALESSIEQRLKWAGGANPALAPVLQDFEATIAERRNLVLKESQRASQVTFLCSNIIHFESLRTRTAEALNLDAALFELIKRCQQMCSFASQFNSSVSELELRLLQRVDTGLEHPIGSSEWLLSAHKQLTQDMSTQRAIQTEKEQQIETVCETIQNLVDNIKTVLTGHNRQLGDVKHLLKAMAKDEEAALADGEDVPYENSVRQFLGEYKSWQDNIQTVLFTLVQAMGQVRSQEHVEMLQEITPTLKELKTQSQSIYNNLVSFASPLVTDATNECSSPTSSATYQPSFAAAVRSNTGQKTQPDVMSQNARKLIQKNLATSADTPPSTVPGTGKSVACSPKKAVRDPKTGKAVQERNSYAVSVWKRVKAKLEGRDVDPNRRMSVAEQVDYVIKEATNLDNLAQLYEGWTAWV
# [11] = test system: nonsense mediated decay (NMD); test: Targeted RNA sequencing of heterozygous indel mutations in NCI-H358 and LS180 cells; assay type: cell-based; details: NCI-H358 and LS180 cells treated in-vitro
# Description: as §1, §2, §3
# [12] = test system: NCI-H716 and NCI-2228 cell lines with and without HLA-A24 expression; test: Luciferase cell killing co-culture assay; assay type: cell-based; details: with human CD8+ T-cells and bispecific antibody
# Experimental: To determine whether this relief of repression is targetable, a bispecific antibody targeting wild type TP53 and CD3 was employed. […] To assess if these novel antigens could be utilized for immune driven cell specific killing, NCI-H716 and NCI-2228 cell lines with and without HLA-A24 expression were labeled with luciferase. […] To establish this effect remained in-vivo, NCI-H716 cells expressing HLA-A24 and luciferase were placed orthotopically in NSG mice. Tumor size was measured by luciferase readings via bioluminescence imaging (BLI).
smiles,measurement,setting,value
CNC(=O)Nc1ccc(-c2cc(-c3ccnc(Nc4ccc(Cl)c(S(=O)(=O)N5CCNCC5)c4)n3)ccn2)cc1 [compound of Formula I],interferon gamma release,[1]; with bispecific antibody and human CD8+ T-cells,increase in interferon gamma release
same,interferon gamma levels,[1]; without bispecific antibody,no change in interferon gamma levels
same,weight loss,"[2]; BALB/c background, within tolerable limits",Some weight loss
same,tumor growth,"[2]; BALB/c mice, 20 mg/kg",Significant slowing of tumor growth
same,tumor growth in immunosuppressed mice,[2]; immunodeficient NSG (BALB/c) mice,minimal or no difference in cell growth
same,mutant protein expression (western blot),[3],induce expression of the NMD targeted mutant protein
same,amount of phosphorylated UPF1,[4],strongly decreased the amount of phosphorylated UPF1
same,"toxicity related behavior (e.g., hunching, lethargy)",[5]; doses up to 50 mg/kg,did not show any toxicity related behavior
same,mutant transcript levels in tumors relative to untreated mice,[5]; intraperitoneal (IP),increases in mutant transcript levels
same,tumor volume,[6],showed a change in tumor volume
same,cell surface MHC presentation of mutant specific neoantigen,[7],presence of a neoantigen specific to the mutant alleles of two genes in NCI-H358 and two other genes in LS180 cells
same,weight loss,[8]; C57BL/6N background,No weight loss
same,tumor growth,"[8]; C57BL/6N mice, 30 mg/kg",Significant slowing of tumor growth
same,tumor growth in immunosuppressed mice,[8]; immunodeficient C57BL/6N SCID mice,minimal or no difference in cell growth
same,physical properties related to solubility,[9],more desirable physical properties related to solubility
same,specificity for SMG1 over other kinases,[10],maintains high specificity for SMG1 protein over other kinases
same,bioactive concentration range (dose response curves),[11],bioactive in the nanomolar range
same,cell killing,[12],cell killing only in cells with HLA-A24 present

# Reference: US20260272923A1, “NONSENSE MEDIATED DECAY INHIBITOR COMPOUNDS” (The Johns Hopkins University, priority 2023, published 2026)
